Earlier results as cited in article PMC4853309 (Protein expression and purification, 2015).

Biological target: NprR
Details: read-out: estimated binding affinity (KD); cited from earlier work

Q: Which Kd does the source give for SKPDIVG [NprX7] here?
A: ~50 nM
